Laboratory results as given in patent publication US7786141B2 (Vertex Pharmaceuticals Incorporated, priority 2004, dated 2010).

Experiments:
M1 muscarinic receptor = molecular target: T1, M1 muscarinic receptor (Homo sapiens, UniProt P11229); assay: Functional mobilization of intracellular calcium (FLIPR) in M1-CHO cells; assay type: cell-based; details: Table 4; for Emax: 100% efficacy is the maximum response obtained with the Carbachol control; for M1 Activity: M1 receptor, calcium mobilization (FLIPR)
T1 construct: expressed in transfected cells; host or cells: CHO (M1-CHO)
T1 sequence (P11229 1-460): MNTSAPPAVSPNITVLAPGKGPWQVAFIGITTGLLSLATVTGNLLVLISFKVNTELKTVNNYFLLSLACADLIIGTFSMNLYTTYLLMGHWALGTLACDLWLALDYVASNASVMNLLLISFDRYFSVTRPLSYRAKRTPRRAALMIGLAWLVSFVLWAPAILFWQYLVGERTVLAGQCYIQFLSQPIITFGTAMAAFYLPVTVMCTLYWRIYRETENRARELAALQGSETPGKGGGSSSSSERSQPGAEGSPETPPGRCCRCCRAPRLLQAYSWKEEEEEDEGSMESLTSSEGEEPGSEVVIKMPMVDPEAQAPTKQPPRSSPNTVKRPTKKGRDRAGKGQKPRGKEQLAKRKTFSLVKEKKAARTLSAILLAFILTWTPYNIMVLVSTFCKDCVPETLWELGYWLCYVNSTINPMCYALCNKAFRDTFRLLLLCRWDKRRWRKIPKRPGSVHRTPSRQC
Method in brief: (§1)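 FLIPR Ca2+ read, ex 488/em 540 nm, 60 s. Recombinant CHO lines (M1 or M4), dye-loaded Fluo-3 AM 60-90 min at 37° C, probenecid 1 mM, pH 7.4. Agonist: compound alone; inhibition: 15 min compound pre-incubation, then carbachol at EC80 for that subtype.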

M4 muscarinic receptor = molecular target: T2, M4 muscarinic receptor (Homo sapiens, UniProt P08173); assay: Functional mobilization of intracellular calcium (FLIPR) in M4-CHO cells; assay type: cell-based; details: Table 4; for Emax: 100% efficacy is the maximum response obtained with the Carbachol control; for M4 Activity: M4 receptor, calcium mobilization (FLIPR)
T2 construct: expressed in transfected cells; host or cells: CHO (M4-CHO)
T2 sequence (P08173 1-479): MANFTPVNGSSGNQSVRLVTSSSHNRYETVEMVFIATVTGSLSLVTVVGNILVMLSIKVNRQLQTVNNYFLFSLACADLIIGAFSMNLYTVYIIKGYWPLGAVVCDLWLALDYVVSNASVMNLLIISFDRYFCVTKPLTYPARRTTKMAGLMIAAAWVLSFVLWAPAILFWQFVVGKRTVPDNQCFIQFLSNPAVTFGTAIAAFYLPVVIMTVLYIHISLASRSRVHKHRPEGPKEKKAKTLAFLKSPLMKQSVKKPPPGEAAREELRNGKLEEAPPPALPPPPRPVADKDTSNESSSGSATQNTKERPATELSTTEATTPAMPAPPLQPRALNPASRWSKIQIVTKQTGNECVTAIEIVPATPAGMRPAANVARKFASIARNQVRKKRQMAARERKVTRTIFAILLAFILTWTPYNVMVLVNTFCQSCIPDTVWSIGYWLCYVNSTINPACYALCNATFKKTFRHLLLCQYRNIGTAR
Method in brief: as §1

Row | Structure (SMILES) | Emax (M1 muscarinic receptor) | M1 Activity (M1 muscarinic receptor) | Emax (M4 muscarinic receptor) | M4 Activity (M4 muscarinic receptor)
1 | CC(=O)N1CC2(CCN(CC3CCC(C)=CC3C)CC2)c2cc(F)ccc21 (stereo not shown) [compound 968] | < 25% | x (activity was measured to be greater than 5.0 μM) | < 25% | x (activity was measured to be greater than 5.0 μM)
2 | CC(=O)NC1CCC2(CCN(CCC3CCN(S(C)(=O)=O)CC3)CC2)c2ccccc21 (stereo not shown) [compound 969] | 25 to 100% | xxx (activity was measured to be less than 2.0 μM) | < 25% | x (activity was measured to be greater than 5.0 μM)
3 | CC(=O)N1CC2(CCN(C3CC4CCC(C3)N4C(=O)O[C@@H]3CCOC3)CC2)c2ccccc21 (stereo partly shown) [compound 970] | 25 to 100% | xxx (activity was measured to be less than 2.0 μM) | 25 to 100% | xxx (activity was measured to be less than 2.0 μM)
4 | CN(C)C(=O)N1CC2(CCN(C3CCN(C(=O)c4cccc(F)c4)CC3)CC2)c2cc(F)ccc21 [compound 972] | 25 to 100% | xx (activity was measured to be between 2.0 μM and 5.0 μM) | < 25% | x (activity was measured to be greater than 5.0 μM)
5 | CC(=O)N1CC2(CCN(C3CCN(c4nncs4)CC3)CC2)c2ccccc21 [compound 973] | 25 to 100% | x (activity was measured to be greater than 5.0 μM) | < 25% | x (activity was measured to be greater than 5.0 μM)
6 | CCOC(=O)N1CC[C@@H](CN2CCC3(CC2)CN(C(=O)N(C)C)c2ccc(F)cc23)C1 [compound 974] | 25 to 100% | xxx (activity was measured to be less than 2.0 μM) | 25 to 100% | xxx (activity was measured to be less than 2.0 μM)
7 | CC(=O)N1CC2(CCN(C3CCN(c4cncc(C5=CCCC5)n4)CC3)CC2)c2ccccc21 [compound 975] | < 25% | x (activity was measured to be greater than 5.0 μM) | < 25% | x (activity was measured to be greater than 5.0 μM)
8 | CC(=O)N1CC2(CCN(C3CCN(c4nccs4)CC3)CC2)c2cc(F)ccc21 [compound 976] | 25 to 100% | xxx (activity was measured to be less than 2.0 μM) | 25 to 100% | xxx (activity was measured to be less than 2.0 μM)
9 | CC(=O)NC1CC2(CCN(C3CCN(C(=O)c4cccc(C(F)(F)F)c4)CC3)CC2)c2ccccc21 (stereo not shown) [compound 978] | < 25% | x (activity was measured to be greater than 5.0 μM) | < 25% | x (activity was measured to be greater than 5.0 μM)
10 | O=C(N[C@H]1CC2(CCN(C3CC4CC[C@@H]3C4)CC2)c2ccccc21)N1CCOCC1 (stereo partly shown) [compound 979] | 25 to 100% | x (activity was measured to be greater than 5.0 μM) | 25 to 100% | xxx (activity was measured to be less than 2.0 μM)
11 | CCOC(=O)N1C2CCC1CC(N1CCC3(CC(=O)c4cc(F)ccc43)C1)C2 (stereo not shown) [compound 980] | > 100% | xxx (activity was measured to be less than 2.0 μM) | 25 to 100% | xxx (activity was measured to be less than 2.0 μM)
12 | CCCC#CCOC(=O)N1CC[C@H](CN2CCC3(CC2)CN(C(=O)N(C)C)c2ccc(F)cc23)C1 [compound 981] | 25 to 100% | xxx (activity was measured to be less than 2.0 μM) | 25 to 100% | xxx (activity was measured to be less than 2.0 μM)
13 | Cc1ccc2c(c1)C1(CCN(C3CC4CCC3C4)CC1)CN2C(=O)c1snnc1C (stereo not shown) [compound 982] | < 25% | x (activity was measured to be greater than 5.0 μM) | < 25% | x (activity was measured to be greater than 5.0 μM)
14 | O=C1CC2(CCN(C3CCCCCC3)CC2)c2cc(Cl)ccc21 [compound 983] | 25 to 100% | xxx (activity was measured to be less than 2.0 μM) | 25 to 100% | xxx (activity was measured to be less than 2.0 μM)
15 | CCCN1CC2(CCN(C[C@H]3C[C@H]4C=CC3C4)CC2)c2cc(F)ccc21 [compound 984] | 25 to 100% | xx (activity was measured to be between 2.0 μM and 5.0 μM) | 25 to 100% | xxx (activity was measured to be less than 2.0 μM)
16 | CC(=O)NC1CC2(CCN(CC3CC4C=CC3C4)CC2)c2ccc(C)cc21 (stereo not shown) [compound 985] | 25 to 100% | x (activity was measured to be greater than 5.0 μM) | 25 to 100% | xx (activity was measured to be between 2.0 μM and 5.0 μM)
17 | CCOC(=O)N1CCCC(N2CCCC3(CC2)CN(C(C)=O)c2ccc(F)cc23)CC1 (stereo not shown) [compound 986] | 25 to 100% | xxx (activity was measured to be less than 2.0 μM) | 25 to 100% | xxx (activity was measured to be less than 2.0 μM)
18 | CC(CF)OC(=O)N1CCC(N2CCC3(CC2)CN(C(=O)N(C)C)c2ccc(F)cc23)CC1 (stereo not shown) [compound 987] | 25 to 100% | xxx (activity was measured to be less than 2.0 μM) | 25 to 100% | xxx (activity was measured to be less than 2.0 μM)
19 | CN(C)C(=O)N1CC2(CCN(C3CCN(C(=O)c4ccnnc4)CC3)CC2)c2cc(F)ccc21 [compound 988] | 25 to 100% | xxx (activity was measured to be less than 2.0 μM) | 25 to 100% | xxx (activity was measured to be less than 2.0 μM)
20 | C#CCCOC(=O)N1CCC(N2CCC3(CC2)CN(C(C)=O)c2ccccc23)CC1 [compound 989] | 25 to 100% | xxx (activity was measured to be less than 2.0 μM) | < 25% | x (activity was measured to be greater than 5.0 μM)
21 | COc1ccc(N2CCC(N3CCC4(CC3)CN(C(=O)N(C)C)c3ccc(F)cc34)CC2)cc1 [compound 990] | 25 to 100% | xx (activity was measured to be between 2.0 μM and 5.0 μM) | 25 to 100% | x (activity was measured to be greater than 5.0 μM)
22 | CCOC(=O)N1CCC(N2CCC3(CC2)CN(c2ccccc2F)c2ccc(F)cc23)CC1 [compound 991] | 25 to 100% | xxx (activity was measured to be less than 2.0 μM) | 25 to 100% | xxx (activity was measured to be less than 2.0 μM)
23 | CCOC(=O)N1CCC(N2CCC3(CC2)CN(C(C)=O)c2c(-c4ccc(F)cc4)cccc23)CC1 [compound 992] | 25 to 100% | x (activity was measured to be greater than 5.0 μM) | 25 to 100% | x (activity was measured to be greater than 5.0 μM)
24 | CC(=O)N[C@H]1CCC2(CCN(CC3CCCC3)CC2)c2ccccc21 [compound 993] | 25 to 100% | xxx (activity was measured to be less than 2.0 μM) | 25 to 100% | xxx (activity was measured to be less than 2.0 μM)
25 | CCOC(=O)N1CCC(CN2CCC3(CC2)CN(C(C)=O)c2ccc(C(F)(F)F)cc23)CC1 [compound 994] | 25 to 100% | xxx (activity was measured to be less than 2.0 μM) | 25 to 100% | xxx (activity was measured to be less than 2.0 μM)
26 | CCOC(=O)N1CCC(N2CCC3(CC2)CN(C(C)=O)c2c(Br)cccc23)CC1 [compound 995] | 25 to 100% | x (activity was measured to be greater than 5.0 μM) | 25 to 100% | xx (activity was measured to be between 2.0 μM and 5.0 μM)
27 | CC(=O)N1CC2(CCN(C[C@@H]3CCN(C(=O)OC(C)C)C3)CC2)c2ccccc21 [compound 996] | < 25% | x (activity was measured to be greater than 5.0 μM) | < 25% | x (activity was measured to be greater than 5.0 μM)
28 | CN(C)C(=O)NC1CCC2(CCN(CC3CC4C=CC3C4)CC2)c2ccccc21 (stereo not shown) [compound 998] | < 25% | x (activity was measured to be greater than 5.0 μM) | 25 to 100% | xxx (activity was measured to be less than 2.0 μM)
